# Read-outs that look alike come from different tables or passages of the source.
# Key:
# mouse seizure models [1] = test system: mouse seizure models; set-up: key: +: Efficacy in mouse seizure models is indicated as plus; −: minus; some (+/−); conditions: literature; the PTZ model was performed in rats for PHB, PHT and VPA; cited from earlier work
# mouse seizure models [2] = test system: mouse seizure models; set-up: key: +: Efficacy in mouse seizure models is indicated as plus; −: minus; some (+/−); conditions: literature; cited from earlier work
# mouse seizure models [3] = test system: mouse seizure models; set-up: key: +: Efficacy in mouse seizure models is indicated as plus; −: minus; some (+/−); conditions: literature; cited from earlier work; remark: listed apart in the source
# mouse seizure models [4] = test system: mouse seizure models; set-up: key: +: Efficacy in mouse seizure models is indicated as plus; −: minus; some (+/−); conditions: literature; cited from earlier work; remark: listed apart in the source
# Wistar rats = test system: Wistar rats; set-up: key to Efficacy in PTZ in PILO-SE rodents (chronic): +: Efficacy in mouse seizure models is indicated as plus; −: minus; some (+/−); conditions: cited from earlier work; for sensitivity of PTZ-induced seizures to drug: one month after pilocarpine, subcutaneous PTZ
# [5] = Method: All mice were housed under a 12 h light dark cycle with free access to food and water. […] Adult male CD1 mice (20-35 g, Australian Institute for Bioengineering and Nanotechnology, Australia) were fed similar diet, prepared by Western Specialty Feed (West Australia). […] Diets were mixed fresh every 3-4 days in the laboratory, dried and then supplied to the mice. Mice were initially weighed daily to ensure adequate nutrition.
# After 4 days habituation, food intake and body weight were determined daily and then averaged per day for each mouse. 24 h urine samples were taken and organic acids isolated by liquid partition chromatography and trimethylsilyl derivatives quantified by gas chromatography mass spectrometry (Sweetman, 1991). In a separate study mice were fed respective diets for 3 weeks and were decapitated after isoflurane anaesthesia between 1-4 pm. Trunk blood was collected on absorbent filter paper for measurement of acyl-carnitine levels in dried blood spots using tandem mass spectrometry modified from the method of Rashed et al. (Rashed et al., 1997).
# [6] = Urine organic acids (GC-MS); format: in vivo, mice; conditions: 24 h urine; levels well below those of propionic acidemia patients
# CD1 mice = assay: Maximal electroshock threshold test (MEST); format: in vivo; set-up: key to Efficacy in MEST (acute): +: Efficacy in mouse seizure models is indicated as plus; −: minus; some (+/−)
# Method: 0.5% Tetracaine (Sigma Aldrich) in 0.9% NaCl solution was applied to corneas 30 minutes prior to stimulation. Saline solution was also applied to corneas and electrodes immediately prior to stimulation to ensure solid conduction. Mice were administered corneal electroshocks, which were generated using a Hugo Sachs Type 211 rodent shocker (Harvard Apparatus, Germany). Stimulation parameters of 50-60 Hz sine wave frequency, 0.2 second shock duration starting at an 11 mA current were used (Giardina and Gasior, 2009). Immediately following shock administration mouse seizure behaviour was observed. Severe clonic convulsions followed by tonic extension of both forelimbs were classified as seizures. 1 mA increments were used to determine the seizure threshold CC50 value using the up down method (Kimball et al., 1957). All mice were terminated via cervical dislocation immediately following seizure observational time.
# CF1 mice [7] = assay: Corneal kindling; format: in vivo; set-up: key to Delay in corneal kindling (chronic): +: Efficacy in mouse seizure models is indicated as plus; −: minus; some (+/−)
# Method: The corneal kindling model was slightly modified from the original protocol ([…] and […], 1998) with kindling twice a day with at least 4 h intervals. A topical anesthetic (0.5% tetracaine hydrochloride ophthalmic solution) was applied to the corneas 10-15 min before stimulation. After wetting the electrodes with 0.9% NaCl immediately before testing, 9 mA 0.4 ms duration pulses at 50 Hz were applied to the corneas for 3 seconds by a constant-current device (ECT Unit 57800, Ugo Basile). Mice were manually held during stimulation and then released for behavioral observation. Seizures were scored according to a modified Racine scale (Racine, 1972) as described by […] and […] (1998) with 0=no reaction or immobility; 1=jaw clonus; 2=myoclonic twitches in the forelimbs, sometimes with head nodding; 3=clonic convulsions in the forelimbs; 4=clonic convulsions in the forelimbs with rearing and falling; 5=loss of balance. […] Both groups had the same average seizure scores for the full kindling period and the last three days of kindling. During the five following weeks, mice were rekindled every week twice a day on two consecutive days and the scores were averaged.
# CF1 mice [8] = assay: PTZ (i.v.) seizure threshold, second hit model in chronic stage of pilocarpine SE model; format: in vivo; set-up: key to Efficacy in PTZ in PILO-SE rodents (chronic): +: Efficacy in mouse seizure models is indicated as plus; −: minus; some (+/−)
# Method: The pilocarpine CF1 mouse model used in this study was slightly modified from our previous description (Borges et al., 2003, Borges et al., 2004, Borges et al., 2006, Borges et al., 2008). 26-43 g CF1 mice were injected with methylatropine (2 mg/kg i.p. in 0.9% NaCl) to minimize peripheral side effects followed after 15-30 min by different doses of pilocarpine for CF1 mice (270-360 mg/kg, s.c.). About fifty percent of injected mice experienced behavioral status epilepticus (SE) lasting about four hours as defined by continuous seizure activity consisting mainly of whole body continuous clonic seizures. 4.5 h after pilocarpine injection, all mice were injected with pentobarbital (22.5 mg/kg, i.p.) followed by 1 ml 5% dextrose in lactate Ringer's solution (i.p.). After SE, mice were monitored daily, hand-fed moistened cookies and injected with 5% dextrose in lactate Ringer's solution twice a day for about three days and thereafter when needed. Spontaneous and handling-induced seizures, including stage 3-5 seizures, jumping and wild running, were noted. […] “Sham control” mice received methylatropine and pentobarbital, but saline instead of pilocarpine. Out of a total of 205 mice injected with pilocarpine, the inventors obtained 44% SE, 41% no SE mice, while 14% of mice died. In the chronic stage of the pilocarpine model, the seizure thresholds for the first generalized clonic and tonic seizures induced by pentylenetetrazole (PTZ, i.v.) as a measure for seizure susceptibility of SE, no SE and control mice were assessed. As previously described ([…] et al., 2008, Willis et al., 2009), 10 mg/ml PTZ dissolved in saline was infused into the tail vein at 150 μl/min. The latencies to the first generalized myoclonic seizure and tonic extension were determined and converted to seizure thresholds expressed as mg/kg body weight. Mice were euthanized by cervical dislocation immediately after the tonic extension seizure.
# [9] = Brain metabolite analysis in chronic stage of pilocarpine model (GC-MS/LC-MS); format: in vivo, CF1 mice; conditions: for brain BHB (β-hydroxybutyrate) / brain Fumarate (%) / brain GABA / brain aspartate (%) / brain citrate / brain glutamate / brain glutamine / brain malate (%) / brain succinate: 35% triheptanoin for three weeks
# Excerpt: (§1) Both groups of mice received standard diet during the phase of epileptogenesis, the first two weeks after SE. They were then divided into two groups of equal average weight and received either standard or 35% triheptanoin-containing diet for three weeks. To avoid metabolite changes induced by anesthesia, mice were killed by cervical dislocation and then decapitated. Within 22-32 seconds brains without cerebellum were frozen in liquid nitrogen. Trunk blood was collected in heparinized tubes for analysis of β-hydroxybutyrate and glucose using kits from Pointe Scientific and […], respectively. Brains were stored at -80 C and shipped to the Metabolic Mouse Phenotyping Center at Case Western University for chromatography mass spectrometry (GC-MS/LC-MS) analysis and characterization of intermediates and products of the CAC and acyl-CoA's.
# [10] = Plasma β-hydroxybutyrate and glucose in pilocarpine model; format: in vivo, CF1 mice; conditions: no significant changes; range over the SE/no SE and diet groups
# Excerpt: as §1
# mouse seizure models [11] = assay: PTZ (acute) seizure model; format: in vivo; set-up: key to Efficacy in PTZ (acute): +: Efficacy in mouse seizure models is indicated as plus; −: minus; some (+/−)
# mouse seizure models [12] = assay: 6 Hz (acute) seizure model; format: in vivo; set-up: key to Efficacy in 6 Hz (acute): +: Efficacy in mouse seizure models is indicated as plus; −: minus; some (+/−)
# acute seizure models = assay: Fluorothyl acute seizure model; format: in vivo; conditions: 30% triheptanoin (Willis and Borges in preparation)
# [13] = chronically epileptic SE mice, not in no SE mice
# [14] = 30% triheptanoin (Willis and Borges in preparation)
structure (smiles),measurement,setting,value
"NC(=O)N1c2ccccc2C=Cc2ccccc21 [CBZ, carbamazepine]",Efficacy in PTZ (acute),mouse seizure models [1],−
same,Efficacy in 6 Hz (acute),mouse seizure models [2],+/−
same,Efficacy in MEST (acute),mouse seizure models [3],+
"CC[C@@H](C(N)=O)N1CCCC1=O [LEV, levetiracetam]",Efficacy in PTZ (acute),mouse seizure models [1],−
same,Efficacy in 6 Hz (acute),mouse seizure models [2],+
same,Efficacy in MEST (acute),mouse seizure models [3],−
same,Delay in corneal kindling (chronic),mouse seizure models [4],+
"O=C1NC(=O)C(c2ccccc2)(c2ccccc2)N1 [PHT, phenyloin]",Efficacy in PTZ (acute),mouse seizure models [1],−
same,Efficacy in 6 Hz (acute),mouse seizure models [2],+
same,sensitivity of PTZ-induced seizures to drug,Wistar rats; SE Wistar rats,not in SE rats
same,Efficacy in PTZ in PILO-SE rodents (chronic),"Wistar rats; literature, PTZ model performed in rats for PHB, PHT and VPA",−
same,sensitivity of PTZ-induced seizures to drug,Wistar rats; no SE Wistar rats,sensitive
same,Efficacy in MEST (acute),mouse seizure models [3],+
"CCCCCCC(=O)OCC(COC(=O)CCCCCC)OC(=O)CCCCCC [Triheptanoin, 1,3-di(heptanoyloxy)propan-2-yl heptanoate]",body weights,"[5]; 35% triheptanoin diet vs standard chow, up to 52 days, CF1 mice",statistically indistinguishable
same,tolerability,"[5]; mouse, in vivo",well tolerated
same,"urine markers for propionic acidemia (methylmalonate, methylcitrate)",[6],some increases
same,"MEST (critical current at which 50% of mice seize, CC50)","CD1 mice; 35% of daily caloric intake as triheptanoin oil, after 3.5 and six weeks, CD1 mice, p=0.018 and p<0.0011",reproducible increase
same,Efficacy in MEST (acute),CD1 mice; mouse,+
same,development of corneally kindled seizures,"CF1 mice [7]; 35% triheptanoin feeding from three weeks prior to and throughout kindling, CF1 mice",delayed the development of kindled seizures
same,Delay in corneal kindling (chronic),CF1 mice [7]; mouse,+
same,PTZ clonic seizure thresholds,"CF1 mice [8]; SE or no SE mice, diet for three weeks after pilocarpine",no effect
same,reversal of increased susceptibility to PTZ tonic extension in SE mice,"CF1 mice [8]; diet initiated immediately after pilocarpine injection, three weeks, p<0.05",about 40%
same,Efficacy in PTZ in PILO-SE rodents (chronic),CF1 mice [8]; mice,+
same,reversal of susceptibility to PTZ tonic extension in no SE mice,"CF1 mice [8]; no SE mice, three weeks after pilocarpine injection",but not in no SE mice
same,counteraction of 30% increased susceptibility to tonic extension seizure in SE mice,"CF1 mice [8]; three week feeding initiated two weeks after pilocarpine injection, p<0.05",about 50%
same,brain β-hydroxybutyrate levels,"[9]; 35% triheptanoin diet, both SE and no SE brains",doubled
same,brain BHB (β-hydroxybutyrate),[9]; No SE mice,108.9 ± 9.6 μmol/g wet weight
same,brain Fumarate (%),[9]; No SE mice,82.8 ± 3.8 % of control
same,brain GABA,[9]; No SE mice,2.36 ± 0.13 μmol/g wet weight
same,brain aspartate (%),[9]; No SE mice,104.0 ± 7.0 % of control
same,brain citrate,[9]; No SE mice,0.21 ± 0.01 μmol/g wet weight
same,brain glutamate,[9]; No SE mice,21.59 ± 0.92 μmol/g wet weight
same,brain glutamine,[9]; No SE mice,12.91 ± 0.49 μmol/g wet weight
same,brain malate (%),[9]; No SE mice,125.5 ± 7.7 % of control
same,brain succinate,[9]; No SE mice,0.11 ± 0.01 μmol/g wet weight
same,brain BHB (β-hydroxybutyrate),[9]; SE mice,127.4 ± 15.7 μmol/g wet weight
same,brain Fumarate (%),[9]; SE mice,81.4 ± 2.9 % of control
same,brain GABA,[9]; SE mice,2.16 ± 0.05 μmol/g wet weight
same,brain aspartate (%),[9]; SE mice,76.6 ± 4.1 % of control
same,brain citrate,[9]; SE mice,0.2 ± 0.01 μmol/g wet weight
same,brain glutamate,[9]; SE mice,22.01 ± 1.65 μmol/g wet weight
same,brain glutamine,[9]; SE mice,13.15 ± 0.48 μmol/g wet weight
same,brain malate (%),[9]; SE mice,80.1 ± 3.9 % of control
same,brain succinate,[9]; SE mice,0.10 ± 0.01 μmol/g wet weight
same,brain propionyl-CoA levels,"[9]; SE mice, triheptanoin feeding, p<0.001",restored
same,steady state brain level of succinyl-CoA,[9]; by SE or diet,No significant changes
same,increase of brain HMG-CoA levels,[9]; [13],1.8 fold
same,increase of brain methylmalonyl-CoA levels,[9]; [13],1.4 fold
same,decrease of brain fumarate levels,"[9]; no SE mice, p<0.05",17%
same,increase of brain malate levels,"[9]; no SE mice, p<0.05",26%
same,plasma levels of glucose,[10],174 to 228 mg/dL
same,plasma levels of β-hydroxybutyrate,[10],0.17 to 0.28 mM
same,anticonvulsant effect in acute PTZ (i.v.) model,mouse seizure models [11]; [14],No consistent anticovulsant effect
same,Efficacy in PTZ (acute),mouse seizure models [11]; mouse,−
same,anticonvulsant effect in acute 6 Hz model,mouse seizure models [12]; [14],No consistent anticovulsant effect
same,Efficacy in 6 Hz (acute),mouse seizure models [12]; mouse,−
same,anticonvulsant effect in acute fluorothyl model,acute seizure models,No consistent anticovulsant effect

# Reference: patent publication US20110301238A1, “SEIZURE RELATED DISORDERS AND THERAPEUTIC METHODS THEREOF” (priority 2010, published 2011)
